The text below walks through data of ChEMBL document CHEMBL5729211, “Amine compound for inhibiting SSAO/VAP-1 and use thereof” (2022).

Each structure is given as a SMILES string.

The target of the test is T1, Amine oxidase [copper-containing] 3 (Homo sapiens, UniProt Q16853).
T1 sequence (Q16853 whole entry): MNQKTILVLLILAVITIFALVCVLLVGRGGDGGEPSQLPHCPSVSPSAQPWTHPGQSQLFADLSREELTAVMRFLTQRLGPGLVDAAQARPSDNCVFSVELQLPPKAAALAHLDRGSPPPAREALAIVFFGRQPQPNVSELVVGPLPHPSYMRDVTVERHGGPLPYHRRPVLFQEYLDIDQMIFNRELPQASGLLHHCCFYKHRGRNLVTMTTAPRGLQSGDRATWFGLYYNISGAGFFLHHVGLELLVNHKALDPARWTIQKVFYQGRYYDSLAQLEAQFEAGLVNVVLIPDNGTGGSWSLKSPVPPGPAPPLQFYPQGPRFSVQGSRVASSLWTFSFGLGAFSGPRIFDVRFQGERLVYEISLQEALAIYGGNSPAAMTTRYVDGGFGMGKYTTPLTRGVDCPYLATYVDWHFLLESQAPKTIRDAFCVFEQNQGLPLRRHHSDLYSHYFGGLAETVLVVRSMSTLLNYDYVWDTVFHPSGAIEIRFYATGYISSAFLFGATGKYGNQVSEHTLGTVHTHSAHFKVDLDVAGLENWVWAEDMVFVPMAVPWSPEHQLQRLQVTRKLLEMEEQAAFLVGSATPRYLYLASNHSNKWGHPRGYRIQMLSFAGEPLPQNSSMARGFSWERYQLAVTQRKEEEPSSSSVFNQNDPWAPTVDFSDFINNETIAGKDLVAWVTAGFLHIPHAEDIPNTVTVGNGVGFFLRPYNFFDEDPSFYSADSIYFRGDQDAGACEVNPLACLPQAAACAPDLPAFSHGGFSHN
In words: Biological Assay: 1. Determination of Inhibitory Activity of Human Recombinant SSAO/VAP-1Test purpose: The following methods can be used to determine the inhibitory activity of the compounds described in the examples of the invention for human recombinant SSAO/VAP-1.Test Materials:Human recombinant SSAO/VAP-1 (VAP-1, human) purchased from Sigma, Cat. No. SRP6241;Amplex® Red Monoamine Oxidase Assay Kit purchased from Invitrogen, Cat. No. A12214;384-Well plate purchased from Corning, Cat. No. 6005174;Amplex® Red Hydrogen PeroxidePeroxidase Assay Kit purchased from Invitrogen, Cat. No. A22188.Benzylamine hydrochloride purchased from Sigma, Cat. No. B5136-25G;DMSO (Dimethyl Sulfoxide) purchased from Sigma, Cat. No. D2650-100ML;Test Method:The test compound was dissolved in DMSO and diluted to 10 concentrations in 4-fold serial dilution. In 384 well plates, 25 μL of human recombinant SSAO/VAP-1 (1.6 μg/ml) was added to each well. 100 nL of test compounds with different concentrations were added to each well containing human recombinant SSAO/VAP-1 and incubated at room temperature for 30 min. After 30 min incubation, 25 μl of Amplex® red monoamine oxidase assay kit (containing a reaction mixture of 200 μm Amplex Red reagent, 1 U/ml HRP and 1 mm benzylamine hydrochloride) was added to the corresponding well, and incubated at room temperature and dark for 60 min. After 60 min, the relative fluorescence unit (RFU) was read by using PerkinElmer's Envision at 530-560 nm excitation and 590 nm emission. The curve was drawn by using the graph pad prism 5 software, and the IC50 value was calculated. The results were shown in table 1, wherein the compound listed in table 1 is the compound in the preparation examples with the same compound number:
`NC/C(=C\F)COc1ccc2c(c1)CCN(CC1CCOCC1)C2=O`: the IC50 (usually the point on the concentration scale where inhibition reaches its midpoint) is 0.22 nM.

For `COc1ncc(N2CCc3cc(OC/C(=C/F)CN)ccc3C2=O)cn1`, the IC50 is 1.44 nM.

On to `NC/C(=C/F)COc1ccc2c(c1)CCN(c1ccccn1)C2=O`, for which the IC50 is 0.77 nM.
